Literature values as cited in patent US11396505B2, “Inhibitors of CaMKK2 and uses of same” (New York University, priority 2019, dated 2022).

Conditions: despite achieving high plasma concentrations; cited from earlier work

**Q.** For COc1cccc2cc(-c3nc([C@H]4CC[C@H](C(=O)O)CC4)n4ncnc(N)c34)[nH]c12 [OSI-027], which “tissue and tumor penetration” value is on record?
**A.** poor tissue and tumor penetration
